Experimental data from patent US20080064681A1, “Therapeutic agent for treating glaucoma” (priority 2006, published 2008).
Structures can show the parent of a compound that is named as a salt.

How the values were obtained:
[1] = target: T1, recombinant ROCK II (1-602) (Homo sapiens, UniProt O75116); test: Rho-kinase assay (phosphate incorporation, [γ-32P]ATP, RSK peptide); assay type: biochemical; settings: 10 nM ROCK II, 10 μM ATP, 30° C., 10 minutes
T1 construct: made in house; host or cells: Sf9 insect cells
T1 sequence (O75116 1-602): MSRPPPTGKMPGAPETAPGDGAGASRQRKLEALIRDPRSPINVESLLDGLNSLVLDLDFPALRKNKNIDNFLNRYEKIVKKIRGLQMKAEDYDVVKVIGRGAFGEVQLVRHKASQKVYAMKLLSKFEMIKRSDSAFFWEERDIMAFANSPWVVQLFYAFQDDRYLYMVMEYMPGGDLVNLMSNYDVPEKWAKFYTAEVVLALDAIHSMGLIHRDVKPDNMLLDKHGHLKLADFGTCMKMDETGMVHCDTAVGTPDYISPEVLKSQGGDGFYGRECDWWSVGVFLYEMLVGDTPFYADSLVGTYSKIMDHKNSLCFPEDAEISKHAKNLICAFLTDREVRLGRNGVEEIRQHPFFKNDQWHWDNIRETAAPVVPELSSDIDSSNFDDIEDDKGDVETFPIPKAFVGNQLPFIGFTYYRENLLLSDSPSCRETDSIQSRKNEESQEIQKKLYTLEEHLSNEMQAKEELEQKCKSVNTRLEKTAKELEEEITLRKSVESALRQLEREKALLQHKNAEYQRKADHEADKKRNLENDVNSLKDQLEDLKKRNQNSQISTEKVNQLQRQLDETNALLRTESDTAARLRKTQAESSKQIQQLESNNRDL
Procedure: Rho-kinase assays were performed using the compounds in various concentrations and the 50% inhibitory concentrations (hereinafter referred to as the “IC50 value”) of the compounds for Rho-kinase were calculated. In the Rho-kinase assay, phosphorylation reaction was performed using an activated form of recombinant ROCK II (1-602) obtained by expressing human ROCK II cDNA in Sf9 cells […], and the phosphate incorporation activity was defined as the Rho-kinase activity. Namely, the compounds were each added to a reaction solution containing 50 mM Tris-HCL (ph 7.4), […], 2 mM EDTA, 2 mM EGTA, 0.1% tween 20, 50 μM RSK peptide, 10 μM [γ-^32P]ATP, and 10 nM ROCK II, and the reaction was allowed to proceed at 30° C. for 10 minutes. The reaction mixture was spotted on phosphocellulose paper, and the reaction was stopped by dipping the phosphocellulose paper into a phosphoric acid solution. The phosphocellulose paper was washed with the phosphoric acid solution, and then radioactivity was measured with a liquid scintillation counter.
An Rho-kinase assay was performed, and the 50% inhibitory concentration (hereinafter referred to as the “IC50 value”) was calculated. The IC50 value of the reference compound (S)-hexahydro-1-(4-fluoroisoquinoline-5-sulfonyl)-4-glycyl-2-methyl-1H-1,4-diazepine dihydrochloride for Rho-kinase is shown in Table 2.

[2] = test system: intraocular pressure in rabbits; test: Intraocular pressure measurement after instillation of eye drops in rabbits; assay type: in vivo, rabbit (NZW, male); settings: for time after instillation of maximum intraocular-pressure-reducing effect: 1% eye drops in phosphate buffer pH 7.0, 0.05 ml into right eye; for time after instillation of maximum intraocular-pressure-reducing effect / period of intraocular-pressure-reducing effect longer than that for the compound M / inhibition in vivo at 1 % / intraocular-pressure-reducing effect relative to that of the compound M: rabbit; for period of intraocular-pressure-reducing effect longer than that for the compound M / inhibition in vivo at 1 %: 1% eye drops; for inhibition in vivo at 1 %: Oryctolagus cuniculus, topical, 2 h, 120 minutes after instillation, read-out: maximum intraocular-pressure-reducing effect, intraocular pressure lower than that of the control eye; for intraocular-pressure-reducing effect relative to that of the compound M: after 120 minutes from the instillation
Procedure: Eye drops were prepared by dissolving each compound (1.0 g) in a phosphate buffer solution which was prepared by dissolving 0.8 g of sodium dihydrogen phosphate and 0.5 g of sodium chloride in purified water such that the final weight was 100 g. The pH was adjusted to 7.0 with sodium hydroxide.
As a control, a phosphate buffer solution (pH 7.0) in which 1.0 g of the compound M was not dissolved was used.
Each rabbit (NZW, male, 2.5 to 3.0 kg) was secured in a holder. One of the preparations (0.05 ml) was instilled into the right eye, and the phosphate buffer as control (0.05 ml) was instilled into the left eye. The intraocular pressures were measured serially using a TonoLab handheld mobile tonometer manufactured by Tiolat. The ratios to the control values were calculated and plotted with time (refer to figures).
Eye drops were prepared by dissolving the compound (S)-hexahydro-1-(4-fluoroisoquinoline-5-sulfonyl)-4-glycyl-2-methyl-1H-1,4-diazepine dihydrochloride (1.0 g) in 1.0 g of dimethyl sulfoxide and adding the resulting solution to a boric acid solution prepared by dissolving 2.0 g of boric acid in purified water such that the final weight was 100 g. The pH was adjusted to 7.0 with sodium hydroxide.
The eye drops were administered to a rabbit as in Example 1, and the intraocular pressures were measured.

[3] = test system: intraocular pressure in rabbits; settings: literature reports; cited from earlier work

IC50 [1] [nM] | SMILES | time after instillation of maximum intraocular-pressure-reducing effect [2] [min] | period of intraocular-pressure-reducing effect longer than that for the compound M [2] | inhibition in vivo at 1 % [2] [%] | intraocular-pressure-reducing effect relative to that of the compound M [2] | effect on intraocular pressure in rabbits (reported) [3] | intraocular-pressure-reducing effect ([2]; 1% eye drops in dimethyl sulfoxide / boric acid solution pH 7.0, rabbit)
634 | C[C@H]1CNCCN1S(=O)(=O)c1cccc2cncc(Br)c12 [Compound B6, 2-(S)-1-(4-bromoisoquinoline-5-sulfonyl)-2-methylpiperazine dihydrochloride] | 120 | about 2 hours | 26 | substantially the same as that of the compound M |  | 
28.4 | C[C@H]1CNCCCN1S(=O)(=O)c1cccc2cncc(Br)c12 [Compound B7, (S)-hexahydro-1-(4-bromoisoquinoline-5-sulfonyl)-2-methyl-1H-1,4-diazepine dihydrochloride] | 120 | about 5 hours | 56 | 2.0 times |  | 
48.5 | C[C@H]1CNCCCCN1S(=O)(=O)c1cccc2cncc(Br)c12 [Compound B8, (S)-octahydro-1-(4-bromoisoquinoline-5-sulfonyl)-2-methyl-1,4-diazocine dihydrochloride] | 120 | about 1 hours | 47 | 1.7 times |  | 
25.8 | C[C@H]1CNCCCN1S(=O)(=O)c1cccc2cncc(Cl)c12 [Compound C7, (S)-hexahydro-1-(4-chloroisoquinoline-5-sulfonyl)-2-methyl-1H-1,4-diazepine dihydrochloride] | 120 | about 3 hours | 54 | 1.9 times |  | 
21.1 | C[C@H]1CNCCCCN1S(=O)(=O)c1cccc2cncc(Cl)c12 [Compound C8, (S)-octahydro-1-(4-chloroisoquinoline-5-sulfonyl)-2-methyl-1,4-diazocine dihydrochloride] | 120 | substantially the same as that for the compound M | 35 | 1.3 times |  | 
85 | C[C@H]1CNCCCN1S(=O)(=O)c1cccc2cncc(F)c12 [Compound F7, (S)-hexahydro-1-(4-fluoroisoquinoline-5-sulfonyl)-2-methyl-1H-1,4-diazepine dihydrochloride] | 120 | about 3 hours | 45 | 1.9 times |  | 
39.1 | C[C@H]1CNCCCCN1S(=O)(=O)c1cccc2cncc(F)c12 [Compound F8, (S)-octahydro-1-(4-fluoroisoquinoline-5-sulfonyl)-2-methyl-1,4-diazocine dihydrochloride] | 120 | about 1 hours | 45 | 1.6 times |  | 
 | C[C@@H](N)[C@H]1CC[C@H](C(=O)Nc2ccncc2)CC1 [Compound Y-27632] |  |  |  |  | reduce intraocular pressure in rabbits | 
 | O=S(=O)(c1cccc2cnccc12)N1CCCNCC1 [HA-1077] |  |  |  |  | reduce intraocular pressure in rabbits | 
19.5 | C#Cc1cncc2cccc(S(=O)(=O)N3CCCNC[C@@H]3C)c12.Cl.Cl [M, (S)-hexahydro-1-(4-ethynylisoquinoline-5-sulfonyl)-2-methyl-1 H-1,4-diazepine dihydrochloride, reference compound] | 120 |  | 28 |  |  | 
54 | C[C@H]1CN(C(=O)CN)CCCN1S(=O)(=O)c1cccc2cncc(F)c12.Cl.Cl [Reference Compound, (S)-hexahydro-1-(4-fluoroisoquinoline-5-sulfonyl)-4-glycyl-2-methyl-1H-1,4-diazepine dihydrochloride, reference compound] |  |  |  |  |  | a statistically significant intraocular-pressure-reducing effect was not observed
